According to patent US10221426B2, “Constitutively active PYR/PYL receptor proteins for improving plant stress tolerance” (The Regents of the University of California, priority 2009, dated 2019):

Target: T1, PYL2-HAB1 (Arabidopsis thaliana, UniProt O80992)
T1 construct: BD-PYR/PYL fusion proteins were constructed in the same manner as for BD-PYR1 above; expressed in transfected cells; host or cells: yeast (Y190, as for BD-PYR1)
T1 sequence (O80992 1-190): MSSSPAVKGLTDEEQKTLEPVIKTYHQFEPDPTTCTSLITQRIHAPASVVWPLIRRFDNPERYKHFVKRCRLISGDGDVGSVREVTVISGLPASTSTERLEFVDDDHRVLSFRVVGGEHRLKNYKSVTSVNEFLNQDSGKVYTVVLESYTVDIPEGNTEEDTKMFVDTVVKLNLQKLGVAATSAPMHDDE
T1 sequence (Q9CAJ0 23-511 partner): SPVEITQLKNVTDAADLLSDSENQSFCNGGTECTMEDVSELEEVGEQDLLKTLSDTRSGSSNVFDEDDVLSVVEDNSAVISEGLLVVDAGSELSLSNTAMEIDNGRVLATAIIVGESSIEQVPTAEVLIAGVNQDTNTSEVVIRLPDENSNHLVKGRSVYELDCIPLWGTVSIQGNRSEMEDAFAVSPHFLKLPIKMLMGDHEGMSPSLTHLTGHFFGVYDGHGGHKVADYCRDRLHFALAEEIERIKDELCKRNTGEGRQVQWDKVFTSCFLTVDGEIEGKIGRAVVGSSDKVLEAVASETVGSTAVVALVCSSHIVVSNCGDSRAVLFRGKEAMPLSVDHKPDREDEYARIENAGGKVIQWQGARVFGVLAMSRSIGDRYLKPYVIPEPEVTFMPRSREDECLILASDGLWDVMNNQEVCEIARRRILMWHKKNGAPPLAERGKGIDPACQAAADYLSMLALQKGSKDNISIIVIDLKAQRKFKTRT
Assay: Yeast two-hybrid BD-PYL2 / AD-HAB1 interaction, X-gal stain
Type: cell-based
Conditions: 10 μM
Procedure: Given that PYR1 is necessary for pyrabactin action and is a predicted ligand-binding protein, we hypothesized that pyrabactin agonizes ABA signaling by inducing a protein-protein interaction between PYR1 and a downstream effector. To test this, ˜2 million prey cDNA clones were screened against a PYR1 Y2H bait construct on media containing 10 μM pyrabactin. To create the PYR1 Y2H bait construct, the Pyr1 open reading frame was PCR amplified from genomic DNA and cloned to pGem-T easy vector (Promega). After sequence confirmation, the Pyr1 ORF was then cloned in-frame between EcoRI and SalI sites of the pBD-GAL4 Cam vector (Stratagene) and transformed into yeast strain Y190. For the screen, an etiolated seedling cDNA library (J. Kim, K., Harter, A., Theologis, Proc Natl Acad Sci USA 94, 11786 (Oct. 28, 1997)) (ABRC stock CD4-22) was used. The cDNA library was first converted from phage to plasmid DNA, yielding 7.6×10^7 transformants. Plasmid DNA prepared from library was then used to transform Y190 as described in the GAL4 Two-Hybrid system manual (Stratagene). For each screen, 40 μg of prey plasmid was transformed into 1 ml of competent Y190 cell harboring bait construct and then grown on SD agar plates lacking His, Leu, and Trp, but containing 15 mM 3-AT and 10 μM pyrabactin. After 4 days incubation at 30° C., well-grown colonies were rescued and interactions validated using filter lift assay or chloroform-agarose overlay method and X-Gal staining. This identified two pyrabactin-dependent hits which sequencing determined encoded cDNAs for the PP2C HAB1, a close relative of the well-characterized ABA response factor ABI1 (A. Saez et al., The Plant Journal 37, 354 (2004); N. Leonhardt et al., THE PLANT CELL 16, 596 (2004)). Next, Y2H strains expressing an AD-HAB1 fusion protein and a BD-PYR1 fusion protein were grown on plates and tested for interactions in response to various compounds, all at 10 μM except for epi-brassinolide (50 nM) and dimethyl sulfoxide (DMSO) (carrier solvent, 1%). […] Thus, PYR1 interacts with HAB1 in a (+)-ABA dependent fashion. […]

SMILES	PYL2-HAB1 interaction by X-gal stain
CC1=CC(=O)CC(C)(C)C1(O)/C=C/C(C)=C\C(=O)O (single isomer, unassigned; (+)) [(+)-ABA]	respond
CC1=CC(=O)CC(C)(C)[C@@]1(O)/C=C/C(C)=C\C(=O)O [ABA, Abscisic acid]	interact with HAB1 in an ABA-stimulated manner
